Source: patent US20250163387A1, “HUMAN PITUITARY NEUROENDOCRINE TUMOR ORGANOIDS AND METHODS OF MAKING AND USING THE SAME” (ARIZONA BOARD OF REGENTS OF THE UNIVERSITY OF ARIZONA, A …, priority 2022, published 2025)

Tests used:
hPITO39 = assay: Nuclear Morphometric Analysis (NII); format: cell-based, human; conditions: compared to pasireotide and ketoconazole
Protocol: Nuclear Morphometric Analysis (NMA) using treated organoids was performed based on a published protocol that measures cell viability based on the changes in nuclear morphology of the cells using nuclear stain Hoechst or DAPI [30]. Images of organoid nuclei were analyzed using the ImageJ Nuclear Irregularity Index (NII) plugin for key parameters that included cell area, radius ratio, area box, aspect, and roundness. Using the published spreadsheet template, the NII of each cell was calculated with the following formula: NII=Aspect−Area Box+Radius Ratio+Roundness. The area vs NII of vehicle-treated cells were plotted as a scatter plot using the template and considered as the normal cell nuclei. The same plots were generated for each condition, and the NII and area of treated cells were compared to the normal nuclei, and classified as one of the following NMA populations: Normal (N; similar area and NII), Mitotic (S; similar area, slightly higher NII), Irregular (I; similar area, high NII), Small Regular (SR; apoptotic, low area and NII), Senescent (LR; high area, low NII), Small Irregular (SI; low area, high NII), or Large Irregular (LI; high area, high NII). […] The percentage of cells in each NII classification category were calculated and plotted as a histogram using GraphPad Prism. […]

iPSC^USP48MV organoids = assay: Proliferation by EdU uptake; format: cell-based, human; conditions: drug alone, 500 nM
Protocol: (§1) Organoids were immunostained using published protocols by our laboratory. Proliferation was measured by using 5-ethynyl-2'-deoxyuridine (EdU) incorporation according to the Manufacturer's protocol (Click-IT EdU Alexa Fluor 555 Imaging Kit, Thermo Fisher Scientific C10338). Costaining was performed by blocking fixed organoids with 2% donkey serum (Jackson Immuno Research, #017-000-121) diluted in 0.01% PBST for 1 hr. at room temperature. Organoids were then incubated overnight at 4° C. with primary antibodies followed by secondary antibodies and Hoechst (Thermo Fisher Scientific H1399, 1:1000 in 0.01% PBST) for 1 hr at room temperature. Human specific primary antibodies used included: rabbit anti-ACTH (Thermo Fisher Scientific 701293, 1:250), rabbit anti-Synaptophysin (Thermo Fisher Scientific PA5-27286, 1:100), […] (Thermo Fisher Scientific PA5-98650, 1:50), rabbit anti-LH (Thermo Fisher Scientific PA5-102674, 1:100), mouse anti-FSH (Thermo Fisher Scientific MIF2709, 1:100), mouse anti-PRL (Thermo Fisher Scientific CF500720, 1:100), Alexa Flour conjugated GH (NB500-364AF647, 1:100) and mouse anti-CAM5.2 (SIGMA […]-95, 1:250). The secondary antibodies used included Alexa Fluor 488 Donkey Anti Rabbit IgG (H+L) (Thermo Fisher Scientific A21206, 1:100) or Alexa Fluor 647 Donkey Anti Mouse IgG (H+L) (Thermo Fisher Scientific A31571, 1:100). Organoids were visualized and images acquired by confocal microscopy using the Nikon CrestV2 Spinning Disk. Fluorescence intensity and percentage of EdU positive cells of total cells, were calculated using Nikon Elements Software (Version 5.21.05).

iPSC^ctrl organoids = assay: Proliferation by EdU uptake; format: cell-based, human; conditions: drug alone, 500 nM
Protocol: as §1

macroadenomas = conditions: patients with macroadenomas; relacorilant for three months; cited from earlier work

CC#C[C@]1(O)CC[C@H]2[C@@H]3CCC4=CC(=O)CCC4=C3[C@@H](c3ccc(N(C)C)cc3)C[C@@]21C [Mifepristone]
Apoptosis by nuclear morphometric analysis (hPITO39): induced significant apoptosis | cell proliferation (EdU uptake) (iPSC^USP48MV organoids): significant increase | cell proliferation (EdU uptake) (iPSC^ctrl organoids): significant increase | tumor (macroadenoma) regression (macroadenomas): have not been observed
